Measured values taken from PubChem BioAssay (NCI).
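Tested at 5 concentrations; 48 h exposure; 96-well plates; endpoints linearly interpolated, else capped at highest concentration. GI50 marks 50% less growth. TGI denotes the concentration required for complete inhibition of growth.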

What was measured:
Assay in all cases: growth of human tumour cells (NCI), 48 h
HOP-62 NSCLC = tested on: HOP-62 NSCLC
UACC-62 melanoma = tested on: UACC-62 melanoma
T-47D breast = tested on: T-47D breast
HS 578T breast = tested on: HS 578T breast
OVCAR-4 ovarian = tested on: OVCAR-4 ovarian
UO-31 renal = tested on: UO-31 renal
SNB-19 CNS = tested on: SNB-19 CNS
K-562 leukemia = tested on: K-562 leukemia
IGROV1 ovarian = tested on: IGROV1 ovarian
SW-620 colon = tested on: SW-620 colon

Row | Structure (SMILES) | GI50 (HOP-62 NSCLC) [µM] | TGI (HOP-62 NSCLC) [µM] | GI50 (UACC-62 melanoma) [µM] | TGI (UACC-62 melanoma) [µM] | GI50 (T-47D breast) [µM] | TGI (T-47D breast) [µM] | GI50 (HS 578T breast) [µM] | TGI (HS 578T breast) [µM] | GI50 (OVCAR-4 ovarian) [µM] | TGI (OVCAR-4 ovarian) [µM] | GI50 (UO-31 renal) [µM] | TGI (UO-31 renal) [µM] | GI50 (SNB-19 CNS) [µM] | TGI (SNB-19 CNS) [µM] | GI50 (K-562 leukemia) [µM] | TGI (K-562 leukemia) [µM] | GI50 (IGROV1 ovarian) [µM] | TGI (IGROV1 ovarian) [µM] | GI50 (SW-620 colon) [µM] | TGI (SW-620 colon) [µM]
1 | CC#CC(=O)N[C@H]1CCCN(c2c(F)cc(C(N)=O)c3[nH]c(C)c(C)c23)C1 | 24.9 | > 100 | 14.4 | 28.5 | 13.6 | 44.3 | 16.4 | 83.3 | 22.5 | 81.3 | 15.9 | > 100 | 15.3 | 28.6 | 26.8 | > 100 | 14 | 31.6 | 19.8 | 39
2 | Cc1ccc(C)c(N2C(=O)C(=O)c3c(C)ccc(C)c32)c1 | – | > 100 | – | 34.8 | – | 68.3 | – | 63.4 | – | > 100 | – | 55.3 | – | > 100 | – | 48.5 | – | 43.4 | – | > 100
3 | O=C(c1ccncc1)N1CCN(C2=NS(=O)(=O)c3ccccc3N2c2ccccc2)CC1 | 8.06 | 32.3 | 7.99 | 21.6 | 10.9 | 57.5 | 29.3 | 81 | 30.6 | > 100 | 36.4 | > 100 | 15 | 44.9 | 7.79 | > 100 | 25.1 | > 100 | 15.5 | 57.1
4 | Cc1nc2sc(C(=O)Nc3cccc(Cl)c3C)c(N)c2cc1C(=O)c1ccccc1 | 0.296 | > 50 | 0.246 | > 50 | 0.245 | > 50 | 0.194 | > 50 | 1.08 | > 50 | 0.408 | > 50 | 0.222 | > 50 | 0.199 | > 50 | 0.419 | > 50 | 0.209 | > 50
5 | COc1ccc(CCN2COc3ccc4ccc(=O)oc4c3C2)cc1OC | – | > 100 | – | > 100 | – | > 100 | – | > 100 | – | > 100 | – | > 100 | – | > 100 | – | > 100 | – | > 100 | – | 69
6 | CCCC(=O)Nc1ncnc2c1ncn2C1OC2COP(=O)(O)OC2C1OC(=O)CCC (configuration not stated) | > 1000 | > 1000 | > 1000 | > 1000 | > 1000 | > 1000 | – | > 1000 | > 1000 | > 1000 | – | > 1000 | > 1000 | > 1000 | > 1000 | > 1000 | > 1000 | – | > 1000 | > 1000
7 | O=C(NCc1cccs1)OC1CC2CCC1C2 (configuration not stated) | – | > 100 | – | > 100 | – | > 100 | – | > 100 | – | > 100 | – | > 100 | – | > 100 | – | > 100 | – | > 100 | – | > 100
8 | CS(=O)(=O)c1ccc(-c2[nH]c3ccc(F)cc3c2/C=N/NC(N)=S)cc1 | 1.64 | > 100 | 0.531 | > 100 | 12.3 | 85 | 0.293 | 7.74 | 13.4 | > 100 | 2.84 | > 100 | 1.31 | > 100 | 0.532 | 41.2 | 4.95 | > 100 | 0.575 | > 100
9 | COc1cc(CCNc2nc3cc(N)cc(N)c3nc2-c2ccccc2)cc(OC)c1 | 2.95 | 9.35 | 1.81 | 3.36 | 1.74 | 3.8 | 2.43 | 5.85 | 1.21 | 2.54 | 1.94 | 3.78 | 5.92 | 18.6 | 1.73 | 4.25 | 2.52 | 7.98 | 2.28 | 4.71
10 | O=C1CCCC(=O)C1C(=O)c1ccc(C(F)(F)F)cc1[N+](=O)[O-] | > 100 | > 100 | > 100 | > 100 | > 100 | > 100 | > 100 | > 100 | > 100 | > 100 | > 100 | > 100 | > 100 | > 100 | > 100 | > 100 | > 100 | > 100 | > 100 | > 100
